Source: PubChem BioAssay (NCI)
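Method: 48-hour compound exposure of cells in 96-well plates, five concentrations, linear interpolation of endpoints. The concentration for 50% growth inhibition is given as GI50. Definition used: TGI = concentration required for complete inhibition of growth.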

What was measured:
Assay in all cases: NCI anticancer screen, dose series, 48 h
HCC-2998 colon = tested on: HCC-2998 colon
BT-549 breast = tested on: BT-549 breast
COLO 205 colon = tested on: COLO 205 colon
OVCAR-3 ovarian = tested on: OVCAR-3 ovarian
T-47D breast = tested on: T-47D breast
HCT-15 colon = tested on: HCT-15 colon
DLD-1 colon = tested on: DLD-1 colon
M19-MEL melanoma = tested on: M19-MEL melanoma
KM20L2 colon = tested on: KM20L2 colon
LXFL 529 NSCLC = tested on: LXFL 529 NSCLC
SNB-78 CNS = tested on: SNB-78 CNS
DMS 114 small cell lung = tested on: DMS 114 small cell lung

Structure (SMILES)	TGI (HCC-2998 colon) [µM]	TGI (BT-549 breast) [µM]	TGI (COLO 205 colon) [µM]	TGI (OVCAR-3 ovarian) [µM]	TGI (T-47D breast) [µM]	TGI (HCT-15 colon) [µM]	also measured
COc1ccc2c(c1)/c(=C/C#N)c1c3ccccc3[n+](C)n21	6.83	26.1	8.33	4.29	10.6	59.8	
COc1ccc(C2=NNC(=O)c3ccccc3N2c2nc(-c3cccs3)nc3cc(OC)c(OC)cc23)cc1	7.21	6.63	> 100	9.24	17.6	> 100	
O=c1[nH]c2ccc(CC(=S)N3CCOCC3)cc2o1		> 100	> 100	> 100		> 100	
CCOC(=O)N1CCC2(CC1)C[C@@](C(C)=O)(c1ccccc1)C(C)O2 (stereo not given in full)	> 100		> 100	> 100	91.4	> 100	
COc1cccc(CCNc2c(C#N)c3n(c4ccccc4[n+]3C)c3ncccc23)c1	3.46	49.5	10.5	48	14.7	3.74	
C(=N\NC1=NCCN1)/c1ccc2ccccc2c1	31.2	25.3	20.4	32.9	> 100	43.6	
COc1cccc(OC)c1NC(=O)C(=O)Nn1c(NNC(=O)c2ccncc2)nc2ccccc2c1=O	> 100	> 100		> 100	> 100	> 100	
COc1cc(S(=O)(=O)Nc2ccc(-c3csc(N4C(=O)CSC4c4ccccc4O)n3)cc2)ccc1Cl (stereo not given)	41.4	> 100	61.1	> 100		> 100	
CC1CN(CCO)CCN1c1ccccc1 (stereo not given)		> 100	> 100	> 100	> 100	> 100	
CCC(Nc1ncnc2nc[nH]c12)C(=O)O (stereo not given)	> 100	> 100	> 100	> 100	> 100	> 100	
CC(C)(C)OC(=O)N1N=CCC1c1ccccc1 (stereo not given)	> 100		> 100	> 100	> 100	> 100	
CN(C)CC1CCC/C(=C\c2ccc(OC(=O)/C=C/c3ccc(Cl)cc3)cc2)C1=O (stereo not given)	13.1	14.2	2.79	12.4	4.64	6.91	
CN(C)S(=O)(=O)c1nc(Cl)c2[nH]cnc2n1	> 100	> 100	> 100	> 100	> 100	> 100	
Cc1ccc(Nc2nc(-c3ccc(-c4ccc([N+](=O)[O-])cc4)o3)cs2)cc1	97		> 100	> 100		> 100	TGI (DLD-1 colon): > 100 µM; TGI (M19-MEL melanoma): > 100 µM; TGI (KM20L2 colon): > 100 µM; TGI (LXFL 529 NSCLC): > 100 µM; TGI (SNB-78 CNS): > 100 µM
Cc1nc2ccc(NC3OCC(O)C(O)C3O)cc2c(=O)n1-c1ccccc1 (stereo not given)	> 100	> 100	> 100	> 100	> 100	> 100	
O=c1[nH]cnc2c1cnn2Cc1cnnn1COCCO	> 100	> 100	> 100	> 100	> 100	> 100	
O=C1Nc2ccc(Br)cc2/C1=N/N1C(=O)C(=O)N(C2CCCCC2)C1=S	13.5		10.4	10.5	9.95	10.4	
O=c1/c(=C/c2ccccn2)sc2nc3cc4c(cc3n12)OCCO4	> 100	> 100	> 100	> 100	> 100	> 100	
CSc1nc(NCc2ccccc2)c2cnn(COCCO)c2n1		> 100	85.7	> 100	> 100		
O=S(=O)(/N=C(\NO)Nc1ccc(Cl)cc1)c1cc2ccccc2s1		31.6	29.6	32.4	84.2	36	

Structure (SMILES)	TGI (HCC-2998 colon) [µM]	TGI (BT-549 breast) [µM]	TGI (COLO 205 colon) [µM]	TGI (OVCAR-3 ovarian) [µM]	TGI (T-47D breast) [µM]	TGI (HCT-15 colon) [µM]	also measured
COC(=O)c1c2c(cc3c1CC1(Cc4ccccc4C1)C3)CCC2	98.7	95.5	42.1	47.6	43.2	> 100	
Cc1cc(C)c2c(n1)S(=O)(=O)N(CCCN1CCN(c3cccc(Cl)c3)CC1)/C(=C(\O)c1ccc(Br)cc1)C2=O		> 100	29.8	94.7	> 100	> 100	
O=C(NC1C/C(=N/O)c2c(Br)sc(Br)c21)C(F)(F)F (stereo not given)	> 100	> 100	> 100	> 100	> 100	> 100	
O=C(NC1=C(Cl)C(=O)c2ccccc2C1=O)C(=O)C(C(=O)c1ccc2ccccc2c1)C1OC(=O)c2ccccc21 (stereo not given)	22.7	17.3	18.5	9.77	29.3	18	TGI (DLD-1 colon): 16.9 µM; TGI (M19-MEL melanoma): 0.856 µM; TGI (KM20L2 colon): 18.6 µM; TGI (LXFL 529 NSCLC): 17.7 µM; TGI (SNB-78 CNS): 15.4 µM; TGI (DMS 114 small cell lung): 15.1 µM
CSc1ncc2c(n1)-c1ccccc1OC2		> 100	> 100	> 100	62.5	> 100	
COc1ccc([I+]c2ccc(OC)cc2)cc1	> 100	> 100	> 100	> 100	> 100	> 100	GI50 (HCC-2998 colon): 16 µM; GI50 (BT-549 breast): 11.1 µM; GI50 (COLO 205 colon): 9.34 µM; GI50 (OVCAR-3 ovarian): 11.8 µM; GI50 (T-47D breast): 13.5 µM; GI50 (HCT-15 colon): > 100 µM
N#CC1=C(N)N(/N=C/c2ccco2)C(c2ccco2)C1(C#N)C#N (stereo not given)	34.7	34.9	28.9	39	33.2	38.8	
CCNC(=S)NNC(=O)c1ccccc1Nc1ccccc1C(=O)NNC(=S)NCC	> 100	> 100	> 100	> 100	> 100	> 100	
CNC(=O)CNC(=O)N(C[C@@H]1CCCN1C(=O)[C@H](CC(C)C)NC(=O)OC(C)(C)C)C(C)C	> 100	> 100	> 100	> 100	> 100	> 100	
CCCCCCCCCCCCOC1C(COCCN2CCCCC2)OC2OC(C)(C)OC21 (stereo not given)	3.01	5.8	3.03	7.25	4.01	3.2	
COc1cc(/C=C/C(=N\NC(N)=S)c2sc(NNC(C)=O)nc2C)ccc1O	> 100	> 100	> 100	> 100	> 100	> 100	
C=CCOC(=O)Cn1ccc(=O)[nH]c1=O	> 100		> 100		> 100	> 100	
COc1ccc(/C=C/C(=O)c2ccc(Br)cc2)cc1	> 100		> 100		> 100	> 100	
CCOC(=O)c1cc(C)nc2c1c(=O)n(-c1ccccc1)c(=O)n2CCCCN1CCN(c2ncccn2)CC1	> 100	> 100	> 100	> 100	> 100		
C=C(C)CCC1C=[N+]([O-])OC(C)(C)C1(C)C (stereo not given)	> 100		> 100	> 100	> 100	> 100	
CCSc1nc(N/N=C/c2cccs2)c2cnn(CO)c2n1			29.7	19	18.5	15.7	
CCOS(=O)(=O)c1ccc(-c2c3nc(c(-c4ccc(S(=O)(=O)OCC)cc4)c4ccc([nH]4)c(-c4ccc(S(=O)(=O)OCC)cc4)c4nc(c(-c5ccc(S(=O)(=O)OCC)cc5)c5ccc2[nH]5)C=C4)C=C3)cc1	> 31.6	> 31.6	> 31.6		> 31.6	> 31.6	
Cc1ccc(S(=O)(=O)N(CCNC(=O)c2cccc(O)c2O)c2cc3c4c(c2)Oc2cccc5c2C4(C)c2c(cccc2O3)O5)cc1	> 100			> 100	> 100	> 100	
CC#COS(=O)(=O)c1ccc(C)cc1	> 100		> 100	> 100		> 100	TGI (DLD-1 colon): > 100 µM; TGI (M19-MEL melanoma): > 100 µM; TGI (KM20L2 colon): > 100 µM; TGI (LXFL 529 NSCLC): > 100 µM; TGI (SNB-78 CNS): > 100 µM; TGI (DMS 114 small cell lung): > 100 µM
COc1ccc(Nc2nc(N)c(C(=O)c3ccc(Cl)cc3)s2)cc1	3.47	> 73.6	0.117	0.421	> 100	5.49	

Structure (SMILES)	TGI (HCC-2998 colon) [µM]	TGI (BT-549 breast) [µM]	TGI (COLO 205 colon) [µM]	TGI (OVCAR-3 ovarian) [µM]	TGI (T-47D breast) [µM]	TGI (HCT-15 colon) [µM]	also measured
CCOC(=O)NN(C(=O)OCC)C(C(=O)c1ccccc1)N(NC(=O)OCC)C(=O)OCC	> 100	> 100	> 100	> 100	> 100	> 100	
COC(=O)C(=O)C(C(=O)OC)C(=O)C(=O)Nc1c(Cl)cc([N+](=O)[O-])cc1Cl (stereo not given)	> 100	> 100		> 100	> 100	> 100	
CC(=O)[C@@]1(c2ccccc2)CC2(CCN(C)CC2)O[C@H]1C		> 100	> 100	> 100	> 100	> 100	
O=C1CC(c2ccccc2)n2c(nc3ccccc32)N1 (stereo not given)		> 100	> 100	> 100	> 100	> 100	
COC(=O)c1ccccc1C1CN=NC12Cc1ccc3c(c1C2=O)CCC3 (stereo not given)	> 100	> 100	> 100	> 100	> 100	> 100	
COc1ccc(-c2cc(-c3ccc(Nc4ccnc5cc(Cl)ccc45)cc3)[nH]c(=O)c2C#N)cc1	> 100	> 100	> 100	> 100	> 100	> 100	
Cn1cc2c3ccccc3nc-2c2ccccc21	3.04	14.7	3.07	6.88	5.87	4.94	
Cc1ccc(S(=O)(=O)NNS(C)(=O)=O)cc1	> 100		> 100	> 100		> 100	TGI (DLD-1 colon): > 100 µM; TGI (M19-MEL melanoma): > 100 µM; TGI (KM20L2 colon): > 100 µM; TGI (LXFL 529 NSCLC): > 100 µM; TGI (DMS 114 small cell lung): > 100 µM
COc1ccc(-c2nnc3n(C)c4ccccc4n3c2=O)cc1	> 100	> 100	> 100		> 100	> 100	
O=S(=O)(c1ccccc1)c1ccc(-c2nc(-c3ccc4c(c3)Sc3ccccc3S4)cs2)cc1	> 100	91.7	> 100	> 100	> 100	> 100	
CN1C(=O)C23CCCC2CC1(c1ccccc1)S3 (stereo not given)		> 100	> 100	> 100	> 100	> 100	
CCN(CC)CCC1CCCCN1CC(=O)N1c2cc(Cl)ccc2NC(=O)CC1C (stereo not given)	> 100		> 100	> 100	> 100	> 100	
Cc1ccnc(Nc2[nH]c(C(=O)c3ccc(Cl)cc3)c(N)c2C(=S)Nc2ccccc2)c1	29.7	30.5	29.9	93	> 100	34.2	
C(=C/c1nnnn1-c1ccccc1)/Nc1ccccc1	97.7	53.9	> 100	96	> 100	44.2	
Fc1ccc(C(OCCN2CCC3CCC(C2)N3C/C=C/c2cccs2)c2ccc(F)cc2)cc1 (stereo not given)	12.9	25.9	12.2	25.3	15.5	16.6	
O=C1CN(c2cccc(C(F)(F)F)c2)C(=O)CN1CCN1CC(=O)N(c2cccc(C(F)(F)F)c2)CC1=O	> 100		> 100		> 100	> 100	
COc1ccc2nc3ccccc3c(NCCCCN(CCCl)CCCl)c2c1	6.06				13.8	> 43	
Cc1cc(C)n(-c2nc(C)c(CCO)c(=O)[nH]2)n1	> 100	> 100	> 100	> 100	> 100	> 100	
O=C(O)c1nn(-c2ccccc2)nc1-c1nn(-c2ccccc2)nc1C(=O)O	> 100		> 100	> 100	> 100	> 100	
